Laboratory results from patent US10294202B2, “Pyrrolidinones as herbicides” (FMC Corporation, priority 2013, dated 2019).

What was measured:
corn = test: Test A pre-/postemergence herbicide test; format: in vivo, Zea mays; details: Postemergence
Summary of the method: (§1)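 Greenhouse pot test with pre- and postemergence application of surfactant-containing solvent formulations. Postemergence plants were 2–10 cm, one- to two-leaf stage. Response scored visually after ~10 days, 0 (no effect) to 100 (complete control).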

giant foxtail = test: Test A pre-/postemergence herbicide test; format: in vivo, Setaria faberii
Summary of the method: as §1

pigweed = test: Test A pre-/postemergence herbicide test; format: in vivo, Amaranthus retroflexus
Summary of the method: as §1

velvetleaf = test: Test C pre-/postemergence herbicide test; format: in vivo, Abutilon theophrasti
Summary of the method: (§2)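 Greenhouse pots; formulation = non-phytotoxic solvent mix + surfactant. PRE onto seeds in loam:sand; POST at 1–4 leaves (2–18 cm) in peat moss/vermiculite medium. Read-out: visual % control vs untreated, day 13–15.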

blackgrass = test: Test C pre-/postemergence herbicide test; format: in vivo, Alopecurus myosuroides
Summary of the method: as §2

nutsedge, yellow = test: Test C pre-/postemergence herbicide test; format: in vivo, Cyperus esculentus
Summary of the method: as §2

barnyardgrass = test: Test A pre-/postemergence herbicide test; format: in vivo, Echinochloa crus-galli
Summary of the method: as §1

oilseed rape = test: Test C pre-/postemergence herbicide test; format: in vivo, Brassica napus
Excerpt: Seeds of plant species selected from blackgrass (Alopecurus myosuroides), ryegrass, Italian (Italian ryegrass, Lolium multiflorum), wheat (winter wheat, Triticum aestivum), galium (catchweed bedstraw, Galium aparine), corn (Zea mays), crabgrass, large (large crabgrass, Digitaria sanguinalis), foxtail, giant (giant foxtail, Setaria faberii), johnsongrass (Sorghum halepense), lambsquarters (Chenopodium album), morningglory (Ipomoea coccinea), nutsedge, yellow (yellow nutsedge, Cyperus esculentus), pigweed (Amaranthus retroflexus), ragweed (common ragweed, Ambrosia elatior), soybean (Glycine max), barnyardgrass (Echinochloa crus-galli), oilseed rape (Brassica napus), waterhemp (common waterhemp, Amaranthus rudis), kochia (Kochia scoparia), oat, wild (wild oat, Avena fatua), surinam grass (Brachiaria decumbens), foxtail, green (green foxtail, Setaria viridis), goosegrass (Eleusine indica), bromegrass, downy (downy bromegrass, Bromus tectorum), nightshade (eastern black nightshade, Solanum ptycanthum), cocklebur (common cocklebur, Xanthium strumarium), cupgrass, woolly (woolly cupgrass, Eriochloa villosa), bermudagrass (Cynodon dactylon), sunflower, (common oilseed sunflower, Helianthus annuus), Russian thistle (Salsola kali) and velvetleaf (Abutilon theophrasti) were planted into a blend of loam soil and sand and treated preemergence with test chemicals formulated in a non-phytotoxic solvent mixture which included a surfactant. At the same time, plants selected from these crop and weed species and also barley (winter barley, Hordeum vulgare), […]), chickweed (common chickweed, Stellaria media), deadnettle (henbit deadnettle, Lamium amplexicaule), and canarygrass (littleseed canarygrass, Phalaris minor) were planted in pots containing Redi-Earth® planting medium (Scotts Company, 14111 Scottslawn Road, Marysville, Ohio 43041) comprising spaghnum peat moss, vermiculite, wetting agent and starter nutrients and treated with postemergence applications of test chemicals formulated in the same manner. Plants ranged in height from 2 to 18 cm (1- to 4-leaf stage) for postemergence treatments. Treated plants and controls were maintained in a greenhouse for 13 to 15 days, after which time all species were compared to controls and visually evaluated. Plant response ratings, summarized in Table C, are based on a scale of 0 to 100 where 0 is no effect and 100 is complete control. A dash (-) response means no test result.

foxtail, giant = test: Test C pre-/postemergence herbicide test; format: in vivo, Setaria faberii
Summary of the method: as §2

johnsongrass = test: Test C pre-/postemergence herbicide test; format: in vivo, Sorghum halepense
Summary of the method: as §2

[1] = 125 g ai/ha, 0 to 100 scale, 0 is no effect, 100 is complete control
[2] = 125 g ai/ha, visual rating, 0 to 100 scale, 0 no effect, 100 complete control, approximately 10 days, preemergence
[3] = Postemergence, 125 g ai/ha, 0 to 100 scale, 0 is no effect, 100 is complete control
[4] = preemergence, 500 g ai/ha, 0 to 100 scale, 0 is no effect and 100 is complete control
[5] = Preemergence, 31 g ai/ha, scale 0 to 100, 0 is no effect and 100 is complete control
[6] = Preemergence, 62 g ai/ha, scale 0 to 100 (0 no effect, 100 complete control)
[7] = Preemergence, 125 g ai/ha, scale 0 to 100 (0 no effect, 100 complete control)
[8] = Postemergence, 500 g ai/ha, 0 to 100 scale (0 no effect, 100 complete control)
[9] = Preemergence, 125 g ai/ha, 0 to 100 scale where 0 is no effect and 100 is complete control
[10] = Postemergence, 8 g ai/ha, scale 0 to 100 (0 no effect, 100 complete control)
[11] = Postemergence, 16 g ai/ha, scale 0 to 100 (0 no effect, 100 complete control)
[12] = Postemergence, 31 g ai/ha, scale 0 to 100 (0 no effect, 100 complete control)
[13] = Postemergence, 62 g ai/ha, scale 0 (no effect) to 100 (complete control)
[14] = Preemergence, 8 g ai/ha, scale 0 to 100
[15] = Preemergence, 16 g ai/ha, scale 0 to 100

O=C1NCC(c2cccc(C(F)F)c2)C1C(=O)Nc1cccc(F)c1F (racemic) [Compound 211]
90: Foxtail, Giant plant response rating (0 to 100 scale, 0 is no effect, 100 is complete control) (giant foxtail; Postemergence, 500 g ai/ha) | Plant response rating, Foxtail, Giant (giant foxtail; [4]) | Plant response rating (scale of 0 to 100), Blackgrass (blackgrass; Preemergence, 250 g ai/ha) | Plant response rating, Barnyardgrass (barnyardgrass; [3]) | Barnyardgrass plant response rating (0 to 100 scale, 0 is no effect, 100 is complete control) (barnyardgrass; Postemergence, 500 g ai/ha) | Plant response rating, Barnyardgrass (barnyardgrass; [4]) | Plant response rating, Oilseed Rape (oilseed rape; [7]) | Plant response rating (scale of 0 to 100), Oilseed Rape (oilseed rape; Preemergence, 250 g ai/ha) | Plant response rating, Foxtail, Giant (foxtail, giant; [7])
0: Plant response rating, Pigweed (pigweed; [3]) | Velvetleaf plant response rating (velvetleaf; [5]) | Blackgrass plant response rating (blackgrass; [5]) | Nutsedge, Yellow plant response rating (nutsedge, yellow; [5]) | Nutsedge, Yellow plant response rating (nutsedge, yellow; [6]) | Plant response rating, Nutsedge, Yellow (nutsedge, yellow; [7]) | Oilseed Rape plant response rating (oilseed rape; [5]) | Foxtail, Giant plant response rating (foxtail, giant; [5]) | Johnsongrass plant response rating (johnsongrass; [5]) | Johnsongrass plant response rating (johnsongrass; [6])
20: Plant response rating, Pigweed (pigweed; [2]) | Plant response rating, Blackgrass (blackgrass; Preemergence, 62 g ai/ha, scale 0 to 100)
85: Plant response rating, Blackgrass (blackgrass; [7])
65: Plant response rating (scale of 0 to 100), Johnsongrass (johnsongrass; Preemergence, 250 g ai/ha)
80: Plant response rating, Foxtail, Giant (giant foxtail; [2]) | Plant response rating, Barnyardgrass (barnyardgrass; [2])
95: Plant response rating (scale of 0 to 100), Foxtail, Giant (foxtail, giant; Preemergence, 250 g ai/ha)
70: Corn plant response rating (0 to 100 scale, 0 is no effect, 100 is complete control) (corn; 500 g ai/ha) | Plant response rating, Foxtail, Giant (giant foxtail; [3]) | Plant response rating, Pigweed (pigweed; [4]) | Foxtail, Giant plant response rating (foxtail, giant; [6])
30: Plant response rating, Corn (corn; [1]) | Plant response rating, Velvetleaf (velvetleaf; [7]) | Plant response rating, Johnsongrass (johnsongrass; [7])
35: Plant response rating (scale of 0 to 100), Velvetleaf (velvetleaf; Preemergence, 250 g ai/ha) | Oilseed Rape plant response rating (oilseed rape; [6])
10: Velvetleaf plant response rating (velvetleaf; [6]) | Plant response rating (scale of 0 to 100), Nutsedge, Yellow (nutsedge, yellow; Preemergence, 250 g ai/ha)
50: Pigweed plant response rating (0 to 100 scale, 0 is no effect, 100 is complete control) (pigweed; Postemergence, 500 g ai/ha)

CN1CC(c2ccc(F)cc2)C(C(=O)Nc2cccc(F)c2F)C1=O (stereo not drawn) [Compound 271]
40: Plant response rating, Pigweed (pigweed; [9])
55: Plant response rating, Foxtail, Giant (foxtail, giant; [14])
90: Plant response rating, Foxtail, Giant (giant foxtail; [3]) | Plant response rating, Foxtail, Giant (giant foxtail; [8]) | Plant response rating, Foxtail, Giant (giant foxtail; [9]) | Plant response rating, Foxtail, Giant (giant foxtail; [4]) | Plant response rating, Barnyardgrass (barnyardgrass; [3]) | Plant response rating, Barnyardgrass (barnyardgrass; [8]) | Plant response rating, Barnyardgrass (barnyardgrass; [9]) | Plant response rating, Barnyardgrass (barnyardgrass; [4]) | Foxtail, Giant plant response rating (foxtail, giant; [5])
0: Plant response rating, Pigweed (pigweed; Postemergence, 125 g ai/ha, visual rating on 0 to 100 scale (0 no effect, 100 complete control), approx. 10 days) | Plant response rating, Velvetleaf (velvetleaf; [10]) | Plant response rating, Velvetleaf (velvetleaf; [11]) | Velvetleaf plant response rating (velvetleaf; [5]) | Plant response rating, Velvetleaf (velvetleaf; [14]) | Plant response rating, Velvetleaf (velvetleaf; [15]) | Plant response rating, Blackgrass (blackgrass; [10]) | Plant response rating, Blackgrass (blackgrass; [11]) | Plant response rating, Blackgrass (blackgrass; [12]) | Plant response rating, Blackgrass (blackgrass; [13]) | Blackgrass plant response rating (blackgrass; [5]) | Plant response rating, Blackgrass (blackgrass; [14]) | Plant response rating, Nutsedge, Yellow (nutsedge, yellow; [10]) | Plant response rating, Nutsedge, Yellow (nutsedge, yellow; [11]) | Plant response rating, Nutsedge, Yellow (nutsedge, yellow; [12]) | Plant response rating, Nutsedge, Yellow (nutsedge, yellow; [13]) | Nutsedge, Yellow plant response rating (nutsedge, yellow; [5]) | Nutsedge, Yellow plant response rating (nutsedge, yellow; [6]) | Plant response rating, Nutsedge, Yellow (nutsedge, yellow; [14]) | Plant response rating, Nutsedge, Yellow (nutsedge, yellow; [15]) | Plant response rating, Oilseed Rape (oilseed rape; [10]) | Plant response rating, Oilseed Rape (oilseed rape; [11]) | Plant response rating, Oilseed Rape (oilseed rape; [12]) | Oilseed Rape plant response rating (oilseed rape; [5]) | Plant response rating, Oilseed Rape (oilseed rape; [14]) | Plant response rating, Oilseed Rape (oilseed rape; [15]) | Plant response rating, Foxtail, Giant (foxtail, giant; [10]) | Plant response rating, Foxtail, Giant (foxtail, giant; [11]) | Plant response rating, Foxtail, Giant (foxtail, giant; [12]) | Plant response rating, Foxtail, Giant (foxtail, giant; [13]) | Johnsongrass plant response rating (johnsongrass; [5]) | Plant response rating, Johnsongrass (johnsongrass; [14]) | Plant response rating, Johnsongrass (johnsongrass; [15])
20: Plant response rating, Corn (corn; [1]) | Plant response rating, Pigweed (pigweed; [8]) | Plant response rating, Oilseed Rape (oilseed rape; [13]) | Oilseed Rape plant response rating (oilseed rape; [6])
50: Blackgrass plant response rating (blackgrass; [6])
80: Plant response rating, Pigweed (pigweed; [4])
10: Velvetleaf plant response rating (velvetleaf; [6]) | Plant response rating, Johnsongrass (johnsongrass; [10]) | Plant response rating, Johnsongrass (johnsongrass; [11]) | Plant response rating, Johnsongrass (johnsongrass; [12]) | Plant response rating, Johnsongrass (johnsongrass; [13]) | Johnsongrass plant response rating (johnsongrass; [6])
98: Foxtail, Giant plant response rating (foxtail, giant; [6])
60: Plant response rating, Corn (corn; 500 g ai/ha, 0 to 100 scale (0 no effect, 100 complete control))
5: Plant response rating, Velvetleaf (velvetleaf; [12]) | Plant response rating, Velvetleaf (velvetleaf; [13])
75: Plant response rating, Foxtail, Giant (foxtail, giant; [15])
